“And” between values parts separate entries of the source, which are not always exact repeats. Identical values can stand only once.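 Growth conditions: 96-well plates. Treatment: test compound, 48 hours, 5 concentrations. Analysis: linear interpolation between bracketing concentrations; unreached endpoints set to highest concentration. GI50 = concentration required for 50% inhibition of growth. TGI denotes the concentration required for complete inhibition of growth.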
Columns and labels:
Assay in all cases: NCI tumour cell line growth inhibition, 48 h
BT-549 breast = test system: BT-549 breast
MDA-N = test system: MDA-N
RXF-631 renal = test system: RXF-631 renal
HOP-18 NSCLC = test system: HOP-18 NSCLC
DMS 114 small cell lung = test system: DMS 114 small cell lung
XF 498 CNS = test system: XF 498 CNS
M19-MEL melanoma = test system: M19-MEL melanoma
SNB-78 CNS = test system: SNB-78 CNS
LXFL 529 NSCLC = test system: LXFL 529 NSCLC
P388/ADR leukemia = test system: P388/ADR leukemia
P388 leukemia = test system: P388 leukemia
SN12K1 renal = test system: SN12K1 renal

SMILES | GI50 (BT-549 breast) | TGI (BT-549 breast) | TGI (HOP-18 NSCLC) | TGI (DMS 114 small cell lung) | TGI (XF 498 CNS) | TGI (M19-MEL melanoma) | TGI (SNB-78 CNS) | TGI (LXFL 529 NSCLC) | other results
CCOC(=O)/C=C/c1ccc([N+](=O)[O-])o1 | 3.43 µM | 11.4 µM |  |  |  |  |  |  | 
COc1ccc2c(c1)[n+](=O)c(/C=C/C(=O)c1cc(OC)c(OC)c(OC)c1)c(C)n2[O-] | 6.11 µM | 65 µM |  |  |  |  |  |  | 
COc1ccc(-c2cn3ccnc3c(-c3ccc(Cl)cc3)n2)cc1 | 16.5 µM | > 100 µM |  |  |  |  |  |  | 
CN(CCOc1ccc(NS(C)(=O)=O)cc1)CCc1ccc(NS(C)(=O)=O)cc1 | > 100 µM | > 100 µM |  |  |  |  |  |  | 
OC(Cc1cccc2ccccc12)CN1CCC(c2ccccc2)CC1 (stereo unspecified) |  | 31.3 µM |  |  |  |  |  |  | TGI (MDA-N): 27.3 µM
C=C(CN1CCN(c2ccccn2)CC1)c1ccc(C(=O)Nc2ccccc2N)cc1 | 3.95 µM | 37.4 µM |  |  |  |  |  |  | 
COc1ccc(OCC(=O)O)c2c1CCC(C)C2=O (stereo unspecified) |  |  | > 100 µM | > 100 µM | > 100 µM | > 100 µM | > 100 µM |  | TGI (RXF-631 renal): > 100 µM
O=C1C=C(NCCc2ccccc2)c2ccccc2C1=O |  | 3.77 µM | 3 µM | 5.81 µM |  | 0.927 µM | 42.8 µM | 19.1 µM | TGI (MDA-N): 3.39 µM
Cc1c(-c2ccc(-c3ccccc3F)cc2)nc2ccc(F)cc2c1C(=O)O | 17.4 µM and 57.4 µM | 137 µM and 849 µM | 192 µM and 182 µM |  | 164 µM and 230 µM | 153 µM |  |  | GI50 (MDA-N): 0.979 µM and 0.762 µM; GI50 (HOP-18 NSCLC): 57 µM; GI50 (P388/ADR leukemia): 0.5 µM; TGI (P388/ADR leukemia): 60 µM and 125 µM; GI50 (XF 498 CNS): 106 µM; GI50 (P388 leukemia): 0.5 µM; TGI (P388 leukemia): 89.8 µM and 106 µM; TGI (SN12K1 renal): 70.9 µM
COC(OC)c1cccnc1C |  |  | > 100 µM | > 100 µM | > 100 µM | > 100 µM | > 100 µM | > 100 µM | TGI (RXF-631 renal): > 100 µM
COc1ccc2c(CN3CCCC[C@H]3O)cc3cc4c(cc3c2c1)OCO4 | 1.21 µM | 4.5 µM |  |  |  |  |  |  | 
O=C1C(=O)N(c2cc(Cl)ccc2Cl)C(=O)C(=O)C1c1nc2ccccc2s1 |  |  |  | > 100 µM | > 100 µM | > 100 µM | > 100 µM | > 100 µM | 
OC[C@H]1N[C@H](CO)[C@@H](O)[C@H]1O |  | > 100 µM |  |  |  |  |  |  | 
Cc1nc(Nc2ccc(Cl)cc2)sc1C(=O)Nc1cccc2c(=O)[nH][nH]c(=O)c12 |  |  |  | 61.9 µM |  | 84.4 µM | > 100 µM | 86.6 µM | 
COC(=O)c1c(C(=O)O)c(-c2ccccc2)c(-c2ccccc2)c(-c2ccccc2)c1-c1ccccc1 | > 100 µM | > 100 µM |  |  |  |  |  |  | 
CC(C)(C1=NC(C(C)(C)C)CO1)C1=N[C@@H](C(C)(C)C)CO1 (stereo partly specified) |  |  | > 100 µM | > 100 µM | > 100 µM | > 100 µM |  | > 100 µM | 
COc1cc(C2CC(c3ccc(Cl)cc3)=NN2C(C)=O)ccc1Oc1ccnc2cc(Cl)ccc12 (stereo unspecified) | 1.4 µM | > 100 µM |  |  |  |  |  |  | 

SMILES | GI50 (BT-549 breast) | TGI (BT-549 breast) | TGI (HOP-18 NSCLC) | TGI (DMS 114 small cell lung) | TGI (XF 498 CNS) | TGI (M19-MEL melanoma) | TGI (SNB-78 CNS) | TGI (LXFL 529 NSCLC) | other results
Nc1ccc(C(=O)N/C(=C\c2ccc3c(c2)OCO3)c2nc3ccccc3s2)cc1 |  |  |  |  | 25.5 µM | 32.6 µM | 30.5 µM | 22.4 µM | TGI (RXF-631 renal): 35.1 µM
CN(C)C(=S)/N=c1\ssc(=Nc2ccccc2)n1-c1ccccc1 |  |  | > 100 µM | 29.8 µM |  | > 100 µM | 79.7 µM |  | TGI (RXF-631 renal): > 100 µM
Cc1cc(C)c(-c2c(O)c(Br)c(-c3c(C)cc(C)c(Br)c3C)c(O)c2Br)c(C)c1Br | 2.25 µM | 10.5 µM |  |  |  |  |  |  | 
CCOC(=O)c1sc(NC(=O)COc2ccc(/C=C3\CCc4cc(OC)ccc4C3=O)cc2)nc1C | 1.4 µM | 17.7 µM |  |  |  |  |  |  | 
COc1c2c(c(O)c3c4c(c(C)cc13)C1OC3(C(OC)OC5CC(C)(O)C(OC6CC(C)(O)C(O)C(C)O6)C(C)O5)OC1C(OC)(O4)C31CO1)C(=O)C(O)CC2OC1CC(C)(O)C(OC(C)=O)C(C)O1 (stereo unspecified) |  |  |  | < 0.01 µM | < 0.01 µM | < 0.01 µM | < 0.0448 µM | 0.0889 µM | TGI (RXF-631 renal): 4.48 µM
C/C(=C\c1ccccc1)C(=O)c1c(C)cc(C)cc1C |  |  | > 100 µM | > 100 µM | > 100 µM | > 100 µM |  | > 100 µM | 
Cc1cccc(C=NC23CC4CC(CC(C4)C2)C3)c1 |  |  | > 100 µM | > 100 µM | > 100 µM | > 100 µM | > 100 µM |  | 
CN1C2C=CC(=O)C1C(C#N)C2 (stereo unspecified) | 34.5 µM and 93.1 µM | > 100 µM |  |  |  |  |  |  | TGI (MDA-N): > 100 µM
COC(=O)CCC(NC(=S)N/N=C(\C)c1cccs1)C(=O)OC (stereo unspecified) |  |  | > 100 µM | > 100 µM | > 100 µM | > 100 µM | > 100 µM | > 100 µM | 
O=C(NCCCN1CCN(CCCNC(=O)Nc2cc(Cl)ccc2Cl)CC1)Nc1cc(Cl)ccc1Cl |  |  | > 100 µM | > 100 µM | > 100 µM |  | > 100 µM | > 100 µM | 
c1ccc(N2CCN(CCN3CCc4c([nH]c5ccccc45)C3c3cccnc3)CC2)cc1 (stereo unspecified) |  |  | > 100 µM | > 100 µM | > 100 µM | > 100 µM | > 100 µM | > 100 µM | TGI (RXF-631 renal): > 100 µM
CC(C)C(Br)C(=O)NCC(=O)O (stereo unspecified) |  | > 100 µM |  |  |  |  |  |  | TGI (MDA-N): > 100 µM
S=C(Nc1ccc(-c2nc3ccccc3s2)cc1)Nc1ccc(-c2nc3ccccc3s2)cc1 | 9.36 µM | 40.1 µM |  |  |  |  |  |  | 
CCOC(=N)CC(=O)Nc1ccccc1CC |  |  | > 100 µM |  | > 100 µM | > 100 µM | > 100 µM | > 100 µM | TGI (RXF-631 renal): > 100 µM
Cn1cnnc1Sc1c([N+](=O)[O-])nc(-c2ccc([N+](=O)[O-])cc2)n1C |  |  | 31.3 µM | 32.4 µM | 22.5 µM | 32.3 µM | 35.6 µM | 26.8 µM | TGI (RXF-631 renal): 32.8 µM
CCNc1ccc2c(c1)C(=O)N(OS(C)(=O)=O)C2=O |  | > 100 µM |  |  |  |  |  |  | TGI (MDA-N): > 100 µM
